Test results taken from publication PMC11467779, “New anti-ovarian cancer quinolone derivatives acting by modulating microRNA processing machinery” (RSC Medicinal Chemistry, 2024).

Tests used:
[1] = tested on: SKOV-3 cell line; assay: Antiproliferative effect against the SKOV-3 cell line (GI50, cell count); assay type: cell-based, human; conditions: for GI50: Homo sapiens, SK-OV-3, 72 h
Method: (§1) SKOV-3, A2780 and A2780 CIS were cultured and maintained, as previously described,[50] at 37 °C in RPMI 1640 medium (Euroclone) supplemented with 10% fetal bovine serum (FBS; Euroclone), L-glutamine and penicillin/streptomycin (SIGMA-ALDRICH). OVCA433, HEK-293T, HeLa, HCCLM3, SK-Hep-1, MCF-7, A549 and HCT-116 cells were maintained in DMEM medium (Euroclone) containing 10% FBS (Euroclone), L-glutamine and penicillin/streptomycin (SIGMA-ALDRICH). Wi-38 cells were cultured in DMEM medium (Euroclone) supplemented with 10% FBS (Euroclone), L-glutamine and penicillin/streptomycin (SIGMA-ALDRICH), and 1% non-essential amino acids (NEAA; Euroclone). The cultures were maintained in a constant temperature incubator at 37 °C with 5% CO2. […] Once cell adhesion had been promoted, the compounds were added to the culture medium. After 72 hours of treatment, the cells were counted, and the data analyzed by linear regression. Each experiment was carried out three times in triplicate and three separate cell counts were made for each sample. […] Afterwards, the concentration range was narrowed to the relative value obtained in the first evaluation in order to obtain an accurate value.

[2] = Cytotoxicity against non-tumor Wi-38 cells (CC50, cell count); assay type: cell-based; conditions: human, Wi-38 cells (non-tumor), 50% cytotoxicity concentration, 72 hours of treatment
Method: as §1

[3] = 50% cell growth inhibition, 72 hours of treatment, cell count, ND = activity not dose dependent

Compound | GI50 [1, 3] | other results
Cn1cc(C(=O)O)c(=O)c2cc(N)c(N3CCN(c4nccs4)CC3)cc21 [Compound 8] | 50 µM | –
Cn1cc(C(=O)O)c(=O)c2ccc(N3CCN(c4nccs4)CC3)nc21 [Compound 9] | 50 µM | –
CN1CCN(c2c(F)cc3c(=O)c(C(=O)O)cn4c3c2SCC4)CC1 [Compound 10, rufloxacin, reference compound] | 100 µM | –
CCn1cc(C(=O)O)c(=O)c2cc(N)c(N3CCc4ccccc4C3)c(C)c21 [Compound 11, 6-Amino-7-(3,4-dihydroisoquinolin-2(1H)-yl)-1-ethyl-8-methyl-4-oxo-1,4-dihydroquinoline-3-carboxylic acid] | 13.1 ± 1.29 µM | fold more toxic against tumor cells (CC50 Wi-38 vs GI50 SKOV-3) ([1]; SKOV-3 versus Wi-38): approximately 4 fold; CC50 at 72 h [2]: 53.5 ± 20.6 µM
Cc1c(N2CCC(c3ccccc3)CC2)c(N)cc2c(=O)c(C(=O)O)cn(C3CC3)c12 [Compound 12, 6-Amino-1-cyclopropyl-8-methyl-4-oxo-7-(4-phenylpiperidin-1-yl)-1,4-dihydroquinoline-3-carboxylic acid] | 17.1 ± 2.61 µM | CC50 at 72 h [2]: 53 ± 14.9 µM
Cc1c(N2Cc3ccccc3C2)c(N)cc2c(=O)c(C(=O)O)cn(C3CC3)c12 [Compound 13, 6-Amino-1-cyclopropyl-7-(1,3-dihydro-2H-isoindol-2-yl)-8-methyl-4-oxo-1,4-dihydroquinoline-3-carboxylic acid] | 28.8 ± 4.11 µM | –
Cc1c(NCCN2CCCCC2)c(N)cc2c(=O)c(C(=O)O)cn(C3CC3)c12 [Compound 14, 6-Amino-1-cyclopropyl-8-methyl-4-oxo-7-[(2-piperidin-1-ylethyl)amino]-1,4-dihydroquinoline-3-carboxylic acid] | 103 ± 21.6 µM | –
Nc1cc2c(=O)c(C(=O)O)cn(C3CC3)c2cc1N1CCc2ccccc2C1 [Compound 15, 6-Amino-1-cyclopropyl-7-(3,4-dihydroisoquinolin-2(1H)-yl)-4-oxo-1,4-dihydroquinoline-3-carboxylic acid] | 13.2 ± 1.13 µM | CC50 at 72 h [2]: 36.3 ± 8.86 µM
NC(=O)c1cn(C2CC2)c2cc(N3CCc4ccccc4C3)c(N)cc2c1=O [Compound 17, 6-Amino-1-cyclopropyl-7-(3,4-dihydroisoquinolin-2(1H)-yl)-4-oxo-1,4-dihydroquinoline-3-carboxamide] | – | GI50 SKOV-3 [1, 3]: completely inactive
Nc1cc2c(=O)c(C(=O)O)cn(C3CC3)c2cc1N1CCc2ncncc2C1 [Compound 18, 6-Amino-1-cyclopropyl-7-(7,8-dihydropyrido[4,3-d]pyrimidin-6(5H)-yl)-4-oxo-1,4-dihydroquinoline-3-carboxylic acid] | 152 ± 3.05 µM | –
Nc1cc2c(=O)c(C(=O)O)cn(C3CC3)c2cc1N1CCc2nccnc2C1 [Compound 19, 6-Amino-1-cyclopropyl-7-(7,8-dihydropyrido[3,4-b]pyrazin-6(5H)-yl)-4-oxo-1,4-dihydroquinoline-3-carboxylic acid] | 104 ± 2.03 µM | –
Nc1cc2c(=O)c(C(=O)O)cn(C3CC3)c2cc1N1CCNc2ccccc21 [Compound 20, 6-Amino-1-cyclopropyl-7-(3,4-dihydroquinoxalin-1(2H)-yl)-4-oxo-1,4-dihydroquinoline-3-carboxylic acid] | 65.4 ± 24.3 µM | –
Nc1cc2c(=O)c(C(=O)O)cn(C3CC3)c2cc1N1Cc2ccccc2C[C@H]1CO [Compound 23, 6-Amino-1-cyclopropyl-7-[(3S)-3-(hydroxymethyl)-3,4-dihydroisoquinolin-2(1H)-yl]-4-oxo-1,4-dihydroquinoline-3-carboxylic acid] | 46.2 ± 8.38 µM | –
Nc1cc2c(=O)c(C(=O)O)cn(C3CC3)c2cc1N(CCO)Cc1ccccc1 [Compound 26, 6-Amino-7-[benzyl(2-hydroxyethyl)amino]-1-cyclopropyl-4-oxo-1,4-dihydroquinoline-3-carboxylic acid] | 33.9 ± 6.43 µM | fold increase in GI50 SKOV-3 versus 25 ([1]; versus compound 25): 2 fold
O=C(O)c1cn(C2CC2)c2nc(N3CCc4ccccc4C3)c(F)cc2c1=O [Compound 28, 1-Cyclopropyl-7-(3,4-dihydroisoquinolin-2(1H)-yl)-6-fluoro-4-oxo-1,4-dihydro-1,8-naphthyridine-3-carboxylic acid] | 46.8 ± 7.44 µM | –
